Here are results for 2 molecules from patent US20110130374A1, “Small Pyrimidine Derivatives and Methods of Use Thereof” (BIOSEARCH(2007) LTD., priority 2009, published 2011).

One test deals with A375 melanoma cells. Description: Transwell cell migration assay, A375 melanoma cells. Type of test: cell-based. The conditions noted are these: Homo sapiens, A-375. On the procedure: A375 melanoma cells (CRL-1619, American Type Culture Collection (“ATCC”), Manassas Va., USA)) grown in RPMI medium supplement with 10% FBS were starved for 24 hours in FBS free medium. After starvation of 24 hr, 5×10^4 cells in FBS free medium were placed in the upper chamber of 24-well, Transwell apparatus (CORNING TRANS WELL® polycarbonate membrane inserts, 5 μm pore size) with solvent (DMSO/PEG400) or different concentrations of Compound 1 (PRT7000467), Compound 2 (PRT7041128), or Compound 3 (PRT7081582). Medium containing FBS and compounds was added to the bottom chamber. Twenty-four hours later the melanoma cells from the upper chamber were removed with a cotton swab. Cells that migrated to the lower side of the membrane were stained with Calcein-AM (Sigma) and images were taken with fluorescence microscope. The number of migrating cells was quantified by ImageJ software and the IC50 values were calculated using Prism software (Graphpad) (FIG. 1A,1E).
(§1) A375 (melanoma) (CRL-1619, ATCC, Manassas, Va., USA), A431 (melanoma) (CRL-2592, ATCC, Manassas, Va., USA), A2058 (melanoma) (CRL-11147, ATCC, Manassas, Va., USA), MDA-MB-231 (breast) (HTB-26, ATCC, Manassas, Va., USA), LS175T (colon) (ATCC, Manassas, Va., USA), HT29 (colon) (HTB-38, ATCC, Manassas, Va., USA), PC3 (prostate) (CRL-1435, ATCC, Manassas, Va., USA), Panc03.27 (pancreatic) (ATCC, Manassas, Va., USA), 4T1 (breast-mouse) (CRL-2539, ATCC, Manassas. Va., USA), D122 (lung-mouse) (the Weizmann Institute of Science), D122-luc (lung-mouse) (the Weizmann Institute of Science), and B16 F10.9 (melanoma-mouse) cells (Caliper Life Sciences, Hopkinton Mass.), were grown in RPMI medium supplemented with 10% FBS. HUVEC cells were grown in Endothelial Cell Growth Medium 2 and THP1 cells were grown in RPMI medium supplemented with 10% FBS, 2 mM L-Glutamine, 1.5 g/L sodium bicarbonate, 10 mM Hepes, 1 mM sodium pyruvate, 4.5 g/L glucose and 0.05 mM 2-mercaptoethanol. The cells were starved for 24 hours in medium without FBS. At the end of the starvation, 5×10^4 cells in medium without FBS were placed in the upper chamber of 24-well, Transwell apparatus (CORNING TRANSWELL® polycarbonate membrane inserts, 5 μm pore size for A365 and THP1 cells and 8 μm pore size for all the other cells) with solvent (DMSO/PEG400) or different concentrations of compound 1 (PRT7000467). Medium with FBS and compounds was added to the bottom chamber. Twenty-four hours later the cells from the upper chamber were removed with a cotton swab. Cells that migrated to the lower side of the membrane were stained with Calcein-AM (Sigma) and images were taken with a fluorescence microscope. The number of migrating cells was quantified by ImageJ software and the IC50 values were calculated using Prism software (Graphpad).

Test [1] concerns MDA-MB-231 breast cancer cells. Put plainly: Transwell cell migration assay, MDA-MB-231 breast cancer cells. Format: cell-based. On the procedure:
MDA-MB-231 (HTB-26, ATCC, Manassas, Va., USA) and MDA-MB-468 (HTB-132, ATCC, Manassas, Va., USA) breast cancer cell lines and DU 145 (HTB-81, ATCC, Manassas, Va., USA) prostate cancer cell line grown in RPMI medium supplement with 10% FBS were starved for 24 hours in medium without FBS. After 24 hours, 5×10^4 cells in FBS free medium were placed in the upper chamber of 24-well Transwell apparatus (CORNING TRANSWELL® polycarbonate membrane inserts, 8 μm pore size) with solvent (DMSO/PEG400) or 12.5 μM Compound 1 as indicated. Medium with FBS and Compound 1 was added to the bottom chamber. Twenty-four hours later the cells from the upper chamber were removed with a cotton swab. Cells that migrated to the lower side of the membrane were stained with Calcein-AM (Sigma) and images were taken with a fluorescence microscope. […]

The subject of test [2] is MDA-MB-468 breast cancer cells. Put plainly: Transwell cell migration assay, MDA-MB-468 breast cancer cells. Type of test: cell-based. The settings on record: MDA-MB-468, 12.5 μM, 24 h, 8 μm pore (FIG. 2). On the procedure:
(§2) MDA-MB-231 (HTB-26, ATCC, Manassas, Va., USA) and MDA-MB-468 (HTB-132, ATCC, Manassas, Va., USA) breast cancer cell lines and DU 145 (HTB-81, ATCC, Manassas, Va., USA) prostate cancer cell line grown in RPMI medium supplement with 10% FBS were starved for 24 hours in medium without FBS. After 24 hours, 5×10^4 cells in FBS free medium were placed in the upper chamber of 24-well Transwell apparatus (CORNING TRANSWELL® polycarbonate membrane inserts, 8 μm pore size) with solvent (DMSO/PEG400) or 12.5 μM Compound 1 as indicated. Medium with FBS and Compound 1 was added to the bottom chamber. Twenty-four hours later the cells from the upper chamber were removed with a cotton swab. Cells that migrated to the lower side of the membrane were stained with Calcein-AM (Sigma) and images were taken with a fluorescence microscope.

In test [3] the test system is DU145 prostate cancer cell line. Put plainly: Transwell cell migration assay, DU 145 prostate cancer cell line. Type of test: cell-based. The settings on record: DU145, 12.5 μM, 24 h, 8 μm pore (FIG. 2). The method, then:
as §2

The subject of a further test is A431 (melanoma) cells. Put plainly: Transwell cell migration assay, A431. Type of test: cell-based. The settings on record: Homo sapiens, A-431.
From the text: as §1, with “At the end of the starvation, 5×10^4 cells in medium without FBS were placed in the upper chamber of 24-well, Transwell apparatus (CORNING TRANSWELL® polycarbonate membrane inserts, 5 μm pore size for A365 and THP1 cells and 8 μm pore size for all the other cells) with solvent (DMSO/PEG400) or different concentrations of compound 1 (PRT7000467). Medium with FBS and compounds was added to the bottom chamber. Twenty-four hours later the cells from the upper chamber were removed with a cotton swab.” left out

The next test deals with HT29 (colon) cells. Put plainly: Transwell cell migration assay, HT29. The conditions noted are these: Homo sapiens, HT-29. Type of test: cell-based.
From the text: as §1, with “At the end of the starvation, 5×10^4 cells in medium without FBS were placed in the upper chamber of 24-well, Transwell apparatus (CORNING TRANSWELL® polycarbonate membrane inserts, 5 μm pore size for A365 and THP1 cells and 8 μm pore size for all the other cells) with solvent (DMSO/PEG400) or different concentrations of compound 1 (PRT7000467). Medium with FBS and compounds was added to the bottom chamber. Twenty-four hours later the cells from the upper chamber were removed with a cotton swab.” left out

The test system of a further test is PC3 (prostate) cells. Description: Transwell cell migration assay, PC3. Type of test: cell-based.
From the text: as §1, with “At the end of the starvation, 5×10^4 cells in medium without FBS were placed in the upper chamber of 24-well, Transwell apparatus (CORNING TRANSWELL® polycarbonate membrane inserts, 5 μm pore size for A365 and THP1 cells and 8 μm pore size for all the other cells) with solvent (DMSO/PEG400) or different concentrations of compound 1 (PRT7000467). Medium with FBS and compounds was added to the bottom chamber. Twenty-four hours later the cells from the upper chamber were removed with a cotton swab.” left out

Test [4] concerns Panc03.27 (pancreatic) cells. Description: Transwell cell migration assay, Panc03.27. The settings on record: Homo sapiens, PANC-03-27; Panc 03.27, Pancreatic. Format: cell-based.
From the text: as §1, with “At the end of the starvation, 5×10^4 cells in medium without FBS were placed in the upper chamber of 24-well, Transwell apparatus (CORNING TRANSWELL® polycarbonate membrane inserts, 5 μm pore size for A365 and THP1 cells and 8 μm pore size for all the other cells) with solvent (DMSO/PEG400) or different concentrations of compound 1 (PRT7000467). Medium with FBS and compounds was added to the bottom chamber. Twenty-four hours later the cells from the upper chamber were removed with a cotton swab.” left out

The subject of another test is 4T1 (breast-mouse) cells. Description: Transwell cell migration assay, 4T1. Format: cell-based.
From the text: as §1, with “At the end of the starvation, 5×10^4 cells in medium without FBS were placed in the upper chamber of 24-well, Transwell apparatus (CORNING TRANSWELL® polycarbonate membrane inserts, 5 μm pore size for A365 and THP1 cells and 8 μm pore size for all the other cells) with solvent (DMSO/PEG400) or different concentrations of compound 1 (PRT7000467). Medium with FBS and compounds was added to the bottom chamber. Twenty-four hours later the cells from the upper chamber were removed with a cotton swab.” left out

Test [5] concerns B16 F10.9 (melanoma-mouse) cells. Description: Transwell cell migration assay, B16 F10.9. Format: cell-based.
From the text: as §1, with “At the end of the starvation, 5×10^4 cells in medium without FBS were placed in the upper chamber of 24-well, Transwell apparatus (CORNING TRANSWELL® polycarbonate membrane inserts, 5 μm pore size for A365 and THP1 cells and 8 μm pore size for all the other cells) with solvent (DMSO/PEG400) or different concentrations of compound 1 (PRT7000467). Medium with FBS and compounds was added to the bottom chamber. Twenty-four hours later the cells from the upper chamber were removed with a cotton swab.” left out

A further test has as its system THP1 monocytes. Description: Transwell cell migration assay, THP1. Format: cell-based. The settings on record: Homo sapiens, THP-1; THP1, Monocyte.
From the text: as §1, with “At the end of the starvation, 5×10^4 cells in medium without FBS were placed in the upper chamber of 24-well, Transwell apparatus (CORNING TRANSWELL® polycarbonate membrane inserts, 5 μm pore size for A365 and THP1 cells and 8 μm pore size for all the other cells) with solvent (DMSO/PEG400) or different concentrations of compound 1 (PRT7000467). Medium with FBS and compounds was added to the bottom chamber. Twenty-four hours later the cells from the upper chamber were removed with a cotton swab.” left out

Another test deals with HUVEC cells. Put plainly: HUVEC tube-formation assay. Type of test: cell-based, human. The conditions noted are these: 25 μM, 6 h, BME with 50 ng/ml VEGF (FIG. 3). The method, then: Human umbilical vein endothelial cells (HUVEC) were grown routinely in Endothelial Cell Growth Medium 2 with SupplementMix (PromoCell, Germany) containing 15% fetal bovine serum. For Tube-formation assay, 1×10^4 cells, in the above medium containing 5% fetal bovine serum, were seeded on top of Cultrex reduced growth factor Basement Membrane Extract (BME) (R&D Systems, Minneapolis, Minn.) supplemented with 50 ng/ml VEGF (Prospec, Israel). The cells were treated with either solvent (50% DMSO/50% PEG400), 25 μM compound 1 (PRT7000467), 10 μM LY294004 (Cayman Chemical, Ann Arbor, Mich.) or 3 μM FTY720 (Cayman Chemical, Ann Arbor, Mich.) as indicated. LY294004 is a PI3K inhibitor and FTY720 is a modulator of sphingosine-1-phosphate receptors, both of them served as positive controls. Six hours later the cells were stained with Calcein-AM (Sigma, Israel) and images were taken with a fluorescence microscope.

Setting [6] is: A375 melanoma cells, Transwell 5 μm pore, 24 h, Example 3 (FIGS. 1A, 1E), read-out: IC50 in the migration assay.

Where two headings read alike, the source gives them in different places.

As for `Cc1cc(S(=O)(=O)Nc2ncccn2)ccc1NC(=O)/C(=C\c1cccs1)NC(=O)c1cccs1` [Compound 3], the IC50 with A375 melanoma cells (setting [6]) is 1.41 µM.

Regarding `Cc1cc(C)nc(NS(=O)(=O)c2ccc(NC(=O)/C(=C\c3cccs3)NC(=O)c3cccs3)cc2)n1` [Compound 1], the IC50 with A375 melanoma cells (A375, Melanoma, reexamined, Table 1, 6 repeats, read-out: IC50 (μM), Transwell migration) is 1.7 µM; with A375 melanoma cells (setting [6]) it was 5.7 µM; in [1] (Homo sapiens, MDA-MB-231, MDA-MB231, Breast), 0.5 µM; in the test with A431 (melanoma) cells it was 1.1 µM; in the test on HT29 (colon) cells it was 1.5 µM; in the test on PC3 (prostate) cells, 6.3 µM. Also, the IC50 in test [4] is 1 µM; in the test on 4T1 (breast-mouse) cells it was 0.8 µM; in [5], 0.2 µM; in the test on THP1 monocytes, > 30 µM. Also, the “cell migration (Transwell, images)” value in test [1] (MDA-MB-231, 12.5 μM, 24 h, 8 μm pore (FIG. 2)) was “inhibits the migration”; in test [2] it was “inhibits the migration”; in test [3], “inhibits the migration”. Besides, the “formation of tube-like structure by HUVEC cells” value in the test with HUVEC cells is listed as “inhibits the formation of tube-like structure”.
